Values joined by “and” are separate entries in the source; they are usually repeats but may differ in a detail not shown here. Identical values can stand only once. Results filed as inconclusive are left out. Starred links: 1 amine or outer side, 2 acyl side, 3 side chain; linkers in the order of their positions; H or OH if unused. Positions of bridges follow the written chain, without caps; N, C: chain ends. Non-standard residues stand in square brackets, D forms with d. Residues, ends and D or L forms follow the SMILES beside them. Chains are numbered I, II in the order given. Actinocin(9to1) = Cc1c2oc3c(C)ccc(C(=O)[*:1])c3nc-2c(C(=O)[*:2])c(N)c1=O; aThr = C[C@H](O)[C@H](N)C(=O)O; NMeV = CN[C@H](C(=O)O)C(C)C; Sar = CNCC(=O)O

The assay deals with BDF1 mice, Friend leukemia sc, tumor weight T/C. Description: NCI In Vivo Anticancer Drug Screen. Data for tumor model Friend Virus Leukemia (Solid) (subcutaneous) in B6D2F1 (BDF1) mice. Conditions: endpoint: mean tumor weight, higher = larger tumour. The procedure: The antitumor activity of compounds was measured in mice bearing transplantable tumors. Survival or tumor size were measured and the results are expressed as the measurement made in the treated group (T) divided by the measurement made in the vehicle treated control group (C). The tumor model used in this assay is Friend Virus Leukemia (Solid) (subcutaneous) in B6D2F1 (BDF1) mice

[1] abbreviates: dose: 25.0 mg/kg/injection, schedule: Q01DX011 (ip), vehicle: carboxymethylcellulose (CMC).
The mark [2] stands for this setting: dose: 1.0 mg/kg/injection, schedule: Q01DX011 (ip), vehicle: carboxymethylcellulose (CMC).

With `NC1(C(=O)O)CCCC1`, the T/C was 95 % of control (dose: 4.5 mg/kg/injection, schedule: Q01DX011 (ip), vehicle: carboxymethylcellulose (CMC)); 89 % of control (dose: 9.0 mg/kg/injection, schedule: Q01DX011 (ip), vehicle: carboxymethylcellulose (CMC)); 63 % of control (dose: 18.0 mg/kg/injection, schedule: Q01DX011 (ip), vehicle: carboxymethylcellulose (CMC)); 53 % of control (dose: 36.0 mg/kg/injection, schedule: Q01DX011 (ip), vehicle: carboxymethylcellulose (CMC)).

Consider `c1ccc2c(c1)ccc1cc3c(ccc4ccccc43)cc12`, for which the T/C reads like this: (dose: 15.0 mg/kg/injection, schedule: Q01DX011 (ip), vehicle: carboxymethylcellulose (CMC)) 90 % of control; (dose: 31.0 mg/kg/injection, schedule: Q01DX011 (ip), vehicle: carboxymethylcellulose (CMC)) 86 % of control; (dose: 62.5 mg/kg/injection, schedule: Q01DX011 (ip), vehicle: carboxymethylcellulose (CMC)) 39 % of control; (dose: 63.0 mg/kg/injection, schedule: Q01DX011 (ip), vehicle: carboxymethylcellulose (CMC)) 93 % of control; (dose: 250.0 mg/kg/injection, schedule: Q01DX011 (ip), vehicle: carboxymethylcellulose (CMC)) 52 % of control; (dose: 500.0 mg/kg/injection, schedule: Q01DX011 (ip), vehicle: carboxymethylcellulose (CMC)) 29 % of control.

For the compound `Cc1c2oc3c(C)ccc(C(=O)N[C@@H]4C(=O)N[C@H](C(C)C)C(=O)N5CCC[C@H]5C(=O)N(C)CC(=O)N(C)[C@@H](C(C)C)C(=O)O[C@H]4C)c3nc-2c(C(=O)N[C@@H]2C(=O)N[C@H](C(C)C)C(=O)N3CCC[C@H]3C(=O)N(C)CC(=O)N(C)[C@@H](C(C)C)C(=O)O[C@H]2C)c(N)c1=O` (I: [aThr][dV]P[Sar][NMeV] / II: [aThr][dV]P[Sar][NMeV]; ester I:1-I:C, II:1-II:C; linker I:N-II:N via Actinocin(9to1)), the T/C is 86 % of control (dose: 0.03 mg/kg/injection, schedule: Q01DX011 (ip), vehicle: carboxymethylcellulose (CMC)); 38 % of control and 49 % of control (dose: 0.05 mg/kg/injection, schedule: Q01DX011 (ip), vehicle: carboxymethylcellulose (CMC)); 29 % of control (dose: 0.08 mg/kg/injection, schedule: Q01DX011 (ip), vehicle: carboxymethylcellulose (CMC)); 102 % of control (dose: 6.0 micrograms/kg/injection, schedule: Q01DX011 (ip), vehicle: carboxymethylcellulose (CMC)); 93 % of control (dose: 13.0 micrograms/kg/injection, schedule: Q01DX011 (ip), vehicle: carboxymethylcellulose (CMC)); 55 % of control (dose: 20.0 micrograms/kg/injection, schedule: Q01DX011 (ip), vehicle: carboxymethylcellulose (CMC)). Moreover, the T/C (dose: 33.0 micrograms/kg/injection, schedule: Q01DX011 (ip), vehicle: carboxymethylcellulose (CMC)) was 105 % of control.

As to `COc1cc([C@@H]2c3cc4c(cc3[C@H](O)[C@H]3COC(=O)[C@H]23)OCO4)cc(OC)c1OC`, the T/C reads like this: (dose: 0.13 mg/kg/injection, schedule: Q01DX011 (ip), vehicle: carboxymethylcellulose (CMC)) 86 % of control; (dose: 0.55 mg/kg/injection, schedule: Q01DX011 (ip), vehicle: carboxymethylcellulose (CMC)) 86 % of control; (dose: 135.0 micrograms/kg/injection, schedule: Q01DX011 (ip), vehicle: carboxymethylcellulose (CMC)) 83 % of control; (dose: 270.0 micrograms/kg/injection, schedule: Q01DX011 (ip), vehicle: carboxymethylcellulose (CMC)) 114 % of control; (dose: 550.0 micrograms/kg/injection, schedule: Q01DX011 (ip), vehicle: carboxymethylcellulose (CMC)) 75 % of control; (dose: 1100.0 micrograms/kg/injection, schedule: Q01DX011 (ip), vehicle: carboxymethylcellulose (CMC)) 87 % of control.

On to `Nc1ccccc1N`, for which the T/C by setting is: under setting [1], 84 % of control; (dose: 100.0 mg/kg/injection, schedule: Q01DX011 (ip), vehicle: carboxymethylcellulose (CMC)) 11 % of control and 13 % of control and 18 % of control; (dose: 150.0 mg/kg/injection, schedule: Q01DX011 (ip), vehicle: carboxymethylcellulose (CMC)) 10 % of control.

For `CS(=O)(=O)OCCCl`, the T/C by setting is: (dose: 14.0 mg/kg/injection, schedule: Q01DX011 (ip), vehicle: carboxymethylcellulose (CMC)) 67 % of control; (dose: 28.0 mg/kg/injection, schedule: Q01DX011 (ip), vehicle: carboxymethylcellulose (CMC)) 70 % of control; (dose: 57.0 mg/kg/injection, schedule: Q01DX011 (ip), vehicle: carboxymethylcellulose (CMC)) 69 % of control; (dose: 115.0 mg/kg/injection, schedule: Q01DX011 (ip), vehicle: carboxymethylcellulose (CMC)) 60 % of control.

Take `CC/C(=C(\CC)c1ccc(OC)cc1)c1ccc(O)cc1`: the T/C reads like this: (dose: 3.0 mg/kg/injection, schedule: Q01DX011 (sc), vehicle: steriod suspending solution) 69 % of control; (dose: 7.0 mg/kg/injection, schedule: Q01DX011 (sc), vehicle: steriod suspending solution) 101 % of control; (dose: 15.0 mg/kg/injection, schedule: Q01DX011 (sc), vehicle: steriod suspending solution) 79 % of control; (dose: 30.0 mg/kg/injection, schedule: Q01DX011 (sc), vehicle: steriod suspending solution) 55 % of control; (dose: 240.0 mg/kg/injection, schedule: Q01DX011 (sc), vehicle: steriod suspending solution) 65 % of control; (dose: 480.0 mg/kg/injection, schedule: Q01DX011 (sc), vehicle: steriod suspending solution) 63 % of control. In addition, the T/C runs as follows: (dose: 960.0 mg/kg/injection, schedule: Q01DX011 (sc), vehicle: steriod suspending solution) 62 % of control; (dose: 1920.0 mg/kg/injection, schedule: Q01DX011 (sc), vehicle: steriod suspending solution) 63 % of control.

Turning to `CCOc1ccc(Nc2ncnc3nc[nH]c23)cc1CN(CCCl)CCCl`, the T/C by setting is: (dose: 1.0 mg/kg/injection, schedule: Q01DX011 (ip), vehicle: saline) 101 % of control; (dose: 4.0 mg/kg/injection, schedule: Q01DX011 (ip), vehicle: saline) 70 % of control.

In the case of `CCCCCCCCCCCCn1c(C)nc2ccccc21`, the T/C under setting [2] was 114 % of control; the T/C (dose: 2.0 mg/kg/injection, schedule: Q01DX011 (ip), vehicle: carboxymethylcellulose (CMC)) is 75 % of control; the T/C (dose: 4.0 mg/kg/injection, schedule: Q01DX011 (ip), vehicle: carboxymethylcellulose (CMC)) is 97 % of control; the T/C (dose: 8.0 mg/kg/injection, schedule: Q01DX011 (ip), vehicle: carboxymethylcellulose (CMC)) is 76 % of control.

In the case of `Nc1nc(N)c2[nH]cnc2n1`, the T/C by setting is: (dose: 11.0 mg/kg/injection, schedule: Q01DX011 (ip), vehicle: carboxymethylcellulose (CMC)) 109 % of control; (dose: 22.0 mg/kg/injection, schedule: Q01DX011 (ip), vehicle: carboxymethylcellulose (CMC)) 92 % of control; (dose: 44.0 mg/kg/injection, schedule: Q01DX011 (ip), vehicle: carboxymethylcellulose (CMC)) 87 % of control; (dose: 88.0 mg/kg/injection, schedule: Q01DX011 (ip), vehicle: carboxymethylcellulose (CMC)) 66 % of control and 85 % of control.

Take `CC1(C)N=C(N)N=C(N)N1c1cccc(Cl)c1`: the T/C is, setting by setting: (dose: 2.3 mg/kg/injection, schedule: Q01DX011 (ip), vehicle: carboxymethylcellulose (CMC)) 91 % of control; (dose: 4.6 mg/kg/injection, schedule: Q01DX011 (ip), vehicle: carboxymethylcellulose (CMC)) 104 % of control; (dose: 9.2 mg/kg/injection, schedule: Q01DX011 (ip), vehicle: carboxymethylcellulose (CMC)) 108 % of control.

On to `Nc1nc(SCc2ccccc2Cl)c2ncn(C3OC(CO)C(O)C3O)c2n1` (centres undefined), for which the T/C is, setting by setting: (dose: 0.38 mg/kg/injection, schedule: Q01DX011 (ip), vehicle: carboxymethylcellulose (CMC)) 102 % of control; (dose: 0.75 mg/kg/injection, schedule: Q01DX011 (ip), vehicle: carboxymethylcellulose (CMC)) 70 % of control; under setting [2], 61 % of control; (dose: 1.5 mg/kg/injection, schedule: Q01DX011 (ip), vehicle: carboxymethylcellulose (CMC)) 83 % of control; (dose: 3.0 mg/kg/injection, schedule: Q01DX011 (ip), vehicle: carboxymethylcellulose (CMC)) 61 % of control and 68 % of control; (dose: 6.0 mg/kg/injection, schedule: Q01DX011 (ip), vehicle: carboxymethylcellulose (CMC)) 61 % of control and 68 % of control. For the same compound, the T/C runs as follows: (dose: 12.0 mg/kg/injection, schedule: Q01DX011 (ip), vehicle: carboxymethylcellulose (CMC)) 16 % of control and 41 % of control; under setting [1], 10 % of control and 28 % of control; (dose: 50.0 mg/kg/injection, schedule: Q01DX011 (ip), vehicle: carboxymethylcellulose (CMC)) 2 % of control.

With `[I][Hg][CH2]C1COCC([CH2][Hg][I])O1.[I][Hg][CH2]C1COCC([CH2][Hg][I])O1` (centres undefined), the T/C (dose: 10.0 mg/kg/injection, schedule: Q01DX011 (ip), vehicle: carboxymethylcellulose (CMC)) is 75 % of control; the T/C (dose: 20.0 mg/kg/injection, schedule: Q01DX011 (ip), vehicle: carboxymethylcellulose (CMC)) was 56 % of control; the T/C (dose: 40.0 mg/kg/injection, schedule: Q01DX011 (ip), vehicle: carboxymethylcellulose (CMC)) is 77 % of control; the T/C (dose: 80.0 mg/kg/injection, schedule: Q01DX011 (ip), vehicle: carboxymethylcellulose (CMC)) was 45 % of control.

Values taken from PubChem BioAssay AID228 (DTP/NCI, 2004).
